Settings in all cases: Compound concentration 10 µM
The target in assay [1] is T1, Alpha-2B adrenergic receptor (Homo sapiens) (UniProt P18089).
T1 sequence (whole entry): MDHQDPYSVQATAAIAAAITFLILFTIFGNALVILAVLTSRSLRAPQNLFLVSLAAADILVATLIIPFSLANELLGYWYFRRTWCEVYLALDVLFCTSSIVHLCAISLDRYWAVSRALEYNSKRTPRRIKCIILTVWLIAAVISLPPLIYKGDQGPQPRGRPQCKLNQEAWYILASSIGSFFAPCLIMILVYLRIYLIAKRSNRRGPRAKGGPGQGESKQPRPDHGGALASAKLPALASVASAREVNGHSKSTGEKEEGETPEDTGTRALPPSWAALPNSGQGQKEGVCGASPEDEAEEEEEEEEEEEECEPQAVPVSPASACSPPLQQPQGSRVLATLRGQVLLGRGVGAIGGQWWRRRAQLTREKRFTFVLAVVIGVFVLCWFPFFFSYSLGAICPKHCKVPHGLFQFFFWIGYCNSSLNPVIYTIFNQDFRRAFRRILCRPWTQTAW

Assay [2] addresses T2, Alpha-2C adrenergic receptor (Homo sapiens) (UniProt P18825).
T2 sequence (whole entry): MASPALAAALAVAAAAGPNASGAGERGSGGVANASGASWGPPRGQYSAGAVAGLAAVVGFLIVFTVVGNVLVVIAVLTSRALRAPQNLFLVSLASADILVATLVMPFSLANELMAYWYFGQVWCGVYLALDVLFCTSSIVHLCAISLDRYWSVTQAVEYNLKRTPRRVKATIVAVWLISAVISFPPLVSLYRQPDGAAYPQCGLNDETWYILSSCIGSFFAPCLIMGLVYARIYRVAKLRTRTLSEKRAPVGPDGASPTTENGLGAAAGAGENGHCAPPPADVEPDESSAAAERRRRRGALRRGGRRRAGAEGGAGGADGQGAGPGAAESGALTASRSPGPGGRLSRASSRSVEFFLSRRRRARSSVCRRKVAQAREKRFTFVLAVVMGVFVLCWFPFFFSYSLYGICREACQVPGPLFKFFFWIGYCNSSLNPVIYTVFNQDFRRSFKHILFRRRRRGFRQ

Assay [3] has as its target T3, Muscarinic acetylcholine receptor M1 (Homo sapiens) (UniProt P11229).
T3 sequence (whole entry): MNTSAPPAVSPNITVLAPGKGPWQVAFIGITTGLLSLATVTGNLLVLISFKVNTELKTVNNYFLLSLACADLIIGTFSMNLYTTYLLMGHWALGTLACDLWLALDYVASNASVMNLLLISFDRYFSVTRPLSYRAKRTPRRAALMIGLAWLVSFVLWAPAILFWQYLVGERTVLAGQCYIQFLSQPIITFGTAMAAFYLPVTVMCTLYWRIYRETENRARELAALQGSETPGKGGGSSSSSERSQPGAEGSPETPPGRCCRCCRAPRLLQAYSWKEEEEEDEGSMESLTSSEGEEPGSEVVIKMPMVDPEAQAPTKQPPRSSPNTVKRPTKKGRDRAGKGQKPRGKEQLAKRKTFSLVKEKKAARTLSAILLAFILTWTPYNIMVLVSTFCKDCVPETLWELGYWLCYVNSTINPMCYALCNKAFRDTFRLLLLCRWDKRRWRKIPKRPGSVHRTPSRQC

Assay [4] concerns the target T4, Muscarinic acetylcholine receptor M2 (Homo sapiens) (UniProt P08172).
T4 sequence (whole entry): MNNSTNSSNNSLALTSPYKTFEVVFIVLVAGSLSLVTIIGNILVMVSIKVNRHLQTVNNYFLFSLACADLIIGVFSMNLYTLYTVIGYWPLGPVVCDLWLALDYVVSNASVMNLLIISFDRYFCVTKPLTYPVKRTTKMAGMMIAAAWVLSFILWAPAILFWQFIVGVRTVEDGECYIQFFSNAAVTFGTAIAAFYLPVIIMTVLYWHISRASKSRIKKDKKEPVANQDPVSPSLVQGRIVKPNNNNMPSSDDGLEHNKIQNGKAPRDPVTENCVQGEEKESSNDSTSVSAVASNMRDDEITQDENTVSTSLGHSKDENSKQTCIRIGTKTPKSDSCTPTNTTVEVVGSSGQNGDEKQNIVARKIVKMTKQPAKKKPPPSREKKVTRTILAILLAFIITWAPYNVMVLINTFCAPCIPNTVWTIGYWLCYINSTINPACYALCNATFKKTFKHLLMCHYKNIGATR

In assay [5] the target is Muscarinic acetylcholine receptor M3 (Homo sapiens) (UniProt P20309).
Assay [6] addresses D(1A) dopamine receptor (Homo sapiens) (UniProt P21728).
The target of assay [7] is Histamine H1 receptor (Homo sapiens) (UniProt P35367).
Assay [8] addresses Histamine H4 receptor (Homo sapiens) (UniProt Q9H3N8).
Assay [9] concerns the target 5-hydroxytryptamine receptor 2B (Homo sapiens) (UniProt P41595).
In assay [10] the target is 5-hydroxytryptamine receptor 5A (Homo sapiens) (UniProt P47898).
The target of assay [11] is Delta-type opioid receptor (Homo sapiens) (UniProt P41143).
Assay [12] deals with Mu-type opioid receptor (Homo sapiens) (UniProt P35372).
In assay [13] the target is Sigma non-opioid intracellular receptor 1 (Homo sapiens) (UniProt Q99720).
For assay [14], the target named is Sodium-dependent dopamine transporter (Homo sapiens) (UniProt Q01959).
The target in assay [15] is Translocator protein (Homo sapiens) (UniProt P30536).
Assay [16] deals with 5-hydroxytryptamine receptor 1D (Homo sapiens) (UniProt P28221).

Usually inhibition stands for the change of the read-out against control, counted positive when it falls.

Chain of Histamine H1 receptor (Homo sapiens) (P35367 whole entry): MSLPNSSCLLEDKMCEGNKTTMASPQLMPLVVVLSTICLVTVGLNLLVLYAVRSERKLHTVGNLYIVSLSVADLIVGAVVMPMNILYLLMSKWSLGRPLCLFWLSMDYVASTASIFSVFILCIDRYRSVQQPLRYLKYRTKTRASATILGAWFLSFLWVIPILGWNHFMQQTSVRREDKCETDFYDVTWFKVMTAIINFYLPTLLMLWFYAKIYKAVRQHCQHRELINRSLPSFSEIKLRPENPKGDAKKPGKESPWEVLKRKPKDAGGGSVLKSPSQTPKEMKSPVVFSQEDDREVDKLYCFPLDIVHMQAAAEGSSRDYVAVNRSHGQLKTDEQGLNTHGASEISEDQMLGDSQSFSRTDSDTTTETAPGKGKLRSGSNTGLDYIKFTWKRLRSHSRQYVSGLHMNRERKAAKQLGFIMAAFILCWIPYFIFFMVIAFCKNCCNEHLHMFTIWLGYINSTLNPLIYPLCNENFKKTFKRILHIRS
Chain of Sodium-dependent dopamine transporter (Homo sapiens) (Q01959 whole entry): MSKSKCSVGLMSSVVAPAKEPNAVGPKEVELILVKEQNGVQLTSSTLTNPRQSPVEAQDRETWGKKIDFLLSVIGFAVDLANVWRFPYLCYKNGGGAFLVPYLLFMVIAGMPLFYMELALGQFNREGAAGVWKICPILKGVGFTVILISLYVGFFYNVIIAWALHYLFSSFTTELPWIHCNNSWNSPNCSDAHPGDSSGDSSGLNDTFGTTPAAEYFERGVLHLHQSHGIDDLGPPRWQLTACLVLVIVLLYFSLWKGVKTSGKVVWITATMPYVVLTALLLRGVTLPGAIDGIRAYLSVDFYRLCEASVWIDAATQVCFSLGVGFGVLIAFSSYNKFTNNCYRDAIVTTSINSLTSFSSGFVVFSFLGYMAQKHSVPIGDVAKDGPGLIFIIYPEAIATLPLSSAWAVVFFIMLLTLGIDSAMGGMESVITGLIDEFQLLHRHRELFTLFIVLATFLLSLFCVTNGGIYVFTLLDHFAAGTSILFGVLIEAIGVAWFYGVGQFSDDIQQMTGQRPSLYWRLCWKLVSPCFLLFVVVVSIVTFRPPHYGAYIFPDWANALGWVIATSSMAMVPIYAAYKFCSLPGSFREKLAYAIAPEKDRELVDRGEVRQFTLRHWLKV
Chain of Translocator protein (Homo sapiens) (P30536 whole entry): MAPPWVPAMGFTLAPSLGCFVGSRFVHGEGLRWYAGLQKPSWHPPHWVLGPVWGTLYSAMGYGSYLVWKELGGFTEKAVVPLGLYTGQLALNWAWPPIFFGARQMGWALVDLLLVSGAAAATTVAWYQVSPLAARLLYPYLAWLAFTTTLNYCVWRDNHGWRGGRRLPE
Chain of Mu-type opioid receptor (Homo sapiens) (P35372 whole entry): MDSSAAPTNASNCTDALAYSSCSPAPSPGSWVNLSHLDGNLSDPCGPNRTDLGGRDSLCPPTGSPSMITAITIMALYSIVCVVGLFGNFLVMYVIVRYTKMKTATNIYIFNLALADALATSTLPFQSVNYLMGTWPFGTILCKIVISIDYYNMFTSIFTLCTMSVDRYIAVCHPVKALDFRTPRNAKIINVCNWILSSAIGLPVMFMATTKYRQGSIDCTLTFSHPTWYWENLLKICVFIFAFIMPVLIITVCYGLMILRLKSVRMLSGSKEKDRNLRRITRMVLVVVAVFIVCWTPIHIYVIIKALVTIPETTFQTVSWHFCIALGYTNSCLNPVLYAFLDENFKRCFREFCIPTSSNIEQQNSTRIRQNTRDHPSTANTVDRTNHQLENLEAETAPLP
Chain of Sigma non-opioid intracellular receptor 1 (Homo sapiens) (Q99720 whole entry): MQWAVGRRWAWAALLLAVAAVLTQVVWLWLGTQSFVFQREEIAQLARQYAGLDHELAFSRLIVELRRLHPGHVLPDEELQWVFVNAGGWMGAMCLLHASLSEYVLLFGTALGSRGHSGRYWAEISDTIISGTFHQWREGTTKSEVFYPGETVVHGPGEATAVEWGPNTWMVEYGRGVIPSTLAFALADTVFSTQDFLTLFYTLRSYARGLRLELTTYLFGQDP
Chain of Muscarinic acetylcholine receptor M3 (Homo sapiens) (P20309 whole entry, looked up): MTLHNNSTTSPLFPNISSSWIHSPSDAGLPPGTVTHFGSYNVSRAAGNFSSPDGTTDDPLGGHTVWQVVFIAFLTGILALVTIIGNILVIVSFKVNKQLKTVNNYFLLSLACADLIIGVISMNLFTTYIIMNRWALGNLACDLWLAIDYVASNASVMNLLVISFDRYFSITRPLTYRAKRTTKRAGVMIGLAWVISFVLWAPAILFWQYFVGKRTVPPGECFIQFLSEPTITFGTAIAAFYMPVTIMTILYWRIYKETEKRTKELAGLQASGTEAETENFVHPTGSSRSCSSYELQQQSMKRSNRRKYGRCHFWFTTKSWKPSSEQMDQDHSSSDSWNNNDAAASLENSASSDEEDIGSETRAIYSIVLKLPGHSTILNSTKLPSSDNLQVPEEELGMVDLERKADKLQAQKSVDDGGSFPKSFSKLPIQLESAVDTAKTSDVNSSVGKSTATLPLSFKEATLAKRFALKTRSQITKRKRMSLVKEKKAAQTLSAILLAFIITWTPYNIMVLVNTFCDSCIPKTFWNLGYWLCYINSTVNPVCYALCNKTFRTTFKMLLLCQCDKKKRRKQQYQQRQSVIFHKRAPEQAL
Chain of D(1A) dopamine receptor (Homo sapiens) (P21728 whole entry): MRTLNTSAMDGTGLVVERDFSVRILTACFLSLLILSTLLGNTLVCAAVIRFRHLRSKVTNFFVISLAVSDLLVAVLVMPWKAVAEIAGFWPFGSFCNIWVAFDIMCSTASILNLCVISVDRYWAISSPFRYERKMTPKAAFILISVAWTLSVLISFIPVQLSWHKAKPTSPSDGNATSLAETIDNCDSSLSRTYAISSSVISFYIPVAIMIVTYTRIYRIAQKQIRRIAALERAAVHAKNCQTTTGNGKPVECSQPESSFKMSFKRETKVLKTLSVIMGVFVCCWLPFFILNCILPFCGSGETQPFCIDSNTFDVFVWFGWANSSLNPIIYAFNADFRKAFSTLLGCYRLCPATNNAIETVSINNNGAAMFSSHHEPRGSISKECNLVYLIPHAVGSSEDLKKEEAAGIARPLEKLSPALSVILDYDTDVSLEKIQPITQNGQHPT
Chain of 5-hydroxytryptamine receptor 2B (Homo sapiens) (P41595 whole entry): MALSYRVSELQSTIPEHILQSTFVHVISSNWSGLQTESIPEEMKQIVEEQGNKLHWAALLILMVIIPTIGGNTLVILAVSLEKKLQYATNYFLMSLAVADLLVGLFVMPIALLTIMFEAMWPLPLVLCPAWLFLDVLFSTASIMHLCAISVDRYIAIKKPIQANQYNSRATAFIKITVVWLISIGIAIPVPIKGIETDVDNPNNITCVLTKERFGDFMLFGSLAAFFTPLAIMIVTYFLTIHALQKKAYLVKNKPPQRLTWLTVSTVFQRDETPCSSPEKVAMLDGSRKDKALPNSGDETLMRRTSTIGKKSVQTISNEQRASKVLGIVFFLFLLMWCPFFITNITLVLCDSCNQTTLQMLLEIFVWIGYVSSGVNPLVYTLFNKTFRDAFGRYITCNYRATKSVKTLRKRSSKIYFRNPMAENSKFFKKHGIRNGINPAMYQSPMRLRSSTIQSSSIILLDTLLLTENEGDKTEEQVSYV
Chain of Delta-type opioid receptor (Homo sapiens) (P41143 whole entry): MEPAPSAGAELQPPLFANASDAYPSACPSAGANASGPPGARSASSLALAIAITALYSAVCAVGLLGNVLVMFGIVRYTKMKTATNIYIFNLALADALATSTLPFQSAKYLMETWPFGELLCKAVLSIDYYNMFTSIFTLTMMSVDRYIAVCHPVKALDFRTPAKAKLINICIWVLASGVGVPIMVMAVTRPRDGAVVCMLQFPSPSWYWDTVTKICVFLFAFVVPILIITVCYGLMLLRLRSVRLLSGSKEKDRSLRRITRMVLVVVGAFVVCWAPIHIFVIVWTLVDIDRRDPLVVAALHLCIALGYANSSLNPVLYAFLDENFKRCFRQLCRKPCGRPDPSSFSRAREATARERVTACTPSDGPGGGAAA
Chain of 5-hydroxytryptamine receptor 1D (Homo sapiens) (P28221 whole entry): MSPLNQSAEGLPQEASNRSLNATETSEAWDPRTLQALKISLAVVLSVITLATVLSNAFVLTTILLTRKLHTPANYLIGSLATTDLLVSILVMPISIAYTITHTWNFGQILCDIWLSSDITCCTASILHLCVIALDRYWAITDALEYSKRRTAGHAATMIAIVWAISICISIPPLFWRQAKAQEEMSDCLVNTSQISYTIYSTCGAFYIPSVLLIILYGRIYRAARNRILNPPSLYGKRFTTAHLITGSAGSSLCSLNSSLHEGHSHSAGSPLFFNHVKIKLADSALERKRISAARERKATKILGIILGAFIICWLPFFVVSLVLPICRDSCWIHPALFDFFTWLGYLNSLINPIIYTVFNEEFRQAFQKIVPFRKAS
Chain of 5-hydroxytryptamine receptor 5A (Homo sapiens) (P47898 whole entry): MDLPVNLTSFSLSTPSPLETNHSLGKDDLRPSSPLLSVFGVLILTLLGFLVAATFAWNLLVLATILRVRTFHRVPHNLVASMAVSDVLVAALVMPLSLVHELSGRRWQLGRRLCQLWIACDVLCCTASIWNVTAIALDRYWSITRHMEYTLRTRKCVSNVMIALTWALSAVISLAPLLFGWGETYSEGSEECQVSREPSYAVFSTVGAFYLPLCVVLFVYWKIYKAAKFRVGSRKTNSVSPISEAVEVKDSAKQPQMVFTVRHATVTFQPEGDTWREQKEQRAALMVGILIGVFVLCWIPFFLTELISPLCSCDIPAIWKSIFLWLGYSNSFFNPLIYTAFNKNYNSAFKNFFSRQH
Chain of Histamine H4 receptor (Homo sapiens) (Q9H3N8 whole entry): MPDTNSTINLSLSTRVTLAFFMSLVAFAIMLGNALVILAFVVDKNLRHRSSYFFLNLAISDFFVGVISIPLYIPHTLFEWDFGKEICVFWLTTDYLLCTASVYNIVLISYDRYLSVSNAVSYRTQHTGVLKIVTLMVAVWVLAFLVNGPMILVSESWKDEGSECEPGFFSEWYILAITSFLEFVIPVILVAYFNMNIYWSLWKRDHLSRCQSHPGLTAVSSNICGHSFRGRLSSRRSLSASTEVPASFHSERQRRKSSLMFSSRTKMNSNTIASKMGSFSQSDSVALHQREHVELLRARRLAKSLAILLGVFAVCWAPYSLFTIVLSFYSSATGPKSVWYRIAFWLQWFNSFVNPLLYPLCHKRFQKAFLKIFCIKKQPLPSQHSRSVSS

Take `O=S1(=O)c2cccc3cccc(c23)N1CCCN1CCN(c2ccc(F)cc2)CC1`: the inhibition in assay [1] is 104%; in [2] it was 98.7%; in assay [3], 12.9%; in [4], 10.3%; in assay [5] it was 1.23%; in [6], 59.8%. In addition, the inhibition in [7] was 96.9%; in assay [8], 5.54%; in assay [9] it was 93.9%; in assay [10], 58.9%; in assay [11], 8.66%; in [12], 43%. For the same molecule, the figures for the inhibition in assay [13], in [14] and in [15] were 89.3%, 75.8% and 28.7%, respectively.
In the case of `CNC[C@H](O)c1cccc(O)c1`, the inhibition is 21.3% in assay [1]; 32.8% in assay [2]; 7.7% in [3]; -8.03% in [5]; 11.1% in assay [6]; -2.34% in assay [7]. Also, the inhibition in [8] was 19.6%; in assay [16] it was 48.1%; in assay [9], 20.3%; in [10], 26.3%; in assay [11], 13.8%; in assay [12], 2.89%. In assay [15], the inhibition was 11.8%.
Consider `CCCCN1CCC(COC(=O)c2cc(Cl)c(N)c3c2OCCO3)CC1`, for which the inhibition in [1] is 33.3%; in [2] it was 78.8%; in [4] it was 5.99%; in assay [5], 14.6%; in assay [6], 3.42%; in [7], 55.4%. In addition, the inhibition in [8] is -1.37%; in [16], 54.6%; in assay [9] it was 68.3%; in assay [10], -0.67%; in assay [11], 0.6%; in [12] it was 9.58%. The results for the inhibition in assay [13], in [14] and in assay [15] were 105%, 19.5% and 0.42%, respectively.
Turning to `CCCCc1nc(Cl)c(CO)n1Cc1ccc(-c2ccccc2-c2nnn[nH]2)cc1`, the inhibition in assay [2] was 3.84%; in assay [4] it was -0.57%; in assay [6], 10.3%; in assay [8], 7.13%; in assay [16], 43.4%; in [9], 37.1%. Also, the inhibition in [10] is 16.9%; in [11] it was 19.2%; in assay [12], -1.17%; in assay [13], 9.91%; in assay [15], 5.8%.
With `Cc1nc2sccn2c(=O)c1CCN1CCC(=C(c2ccc(F)cc2)c2ccc(F)cc2)CC1`, the inhibition in [1] is 84%; in assay [2] it was 94.9%; in assay [3] it was 18.5%; in assay [4], 34.1%; in assay [5] it was 6.1%; in [6], 99.5%. Further, the inhibition in [7] was 98.3%; in [8], 59%; in assay [9] it was 89.4%; in assay [10] it was 94%; in assay [11] it was 17.7%; in assay [12], 63.5%. Also, the inhibition in assay [13] is 87.3%; in assay [14] it was 68.9%; in assay [15], 31.2%.
Take `C=CCN1C[C@H](C)N([C@H](c2ccc(C(=O)N(CC)CC)cc2)c2cccc(O)c2)C[C@H]1C`: the inhibition in [1] is 9.01%; in [2] it was 25.4%; in assay [3] it was 4.09%; in assay [5] it was -6.19%; in [6] it was 2.02%; in assay [7], 8.35%. Moreover, the inhibition in assay [8] was -9.85%; in [16], 31.4%; in assay [9], 30%; in assay [11] it was 99.9%; in assay [12] it was 98.5%; in assay [13], 87.3%. Also, the inhibition in [14] is 26.9%; in assay [15] it was 20.7%.
With `Oc1ccc2c3c1O[C@H]1c4[nH]c5c(c4C[C@@]4(O)[C@@H](C2)N(CC2CC2)CC[C@]314)C[C@@]1(O)[C@H]2Cc3ccc(O)c4c3[C@@]1(CCN2CC1CC1)[C@H]5O4`, the inhibition in assay [1] was 8.68%; in assay [2], 15.5%; in [3] it was 4.47%; in assay [4] it was 0.51%; in assay [5] it was 3.43%; in [6], 33.5%. Moreover, the inhibition is 9.21% in assay [7]; 1.48% in assay [8]; 14.2% in [9]; 8.31% in [10]; 93.5% in assay [11]; 80.6% in assay [12]. Moreover, the inhibition in assay [13] is 9.49%; in assay [14], -4.44%; in assay [15], 21.5%.
With `COc1cccc([C@H](O)C2CCN(CCc3ccc(F)cc3)CC2)c1OC`, the inhibition was 71.7% in [1]; 26.7% in assay [2]; 1.5% in [4]; -8.67% in assay [5]; 63.9% in assay [6]; 92.9% in assay [7]. Moreover, the inhibition in [8] was 3.4%; in [16] it was 73.8%; in assay [9] it was 89.1%; in assay [10] it was 16.8%; in [11] it was 4.4%; in [12], 8.06%. Moreover, the inhibition was 3.05% in assay [13], 15.6% in [14] and -6.18% in assay [15].
Regarding `S=C(NCCCc1c[nH]cn1)NCCCN(Cc1ccc(Cl)c(Cl)c1)c1ccc(Br)cn1`, the inhibition in assay [1] was 94.8%; in assay [2], 101%; in assay [3], 60.7%; in assay [5], 48.4%; in assay [6] it was 61.5%; in [7] it was 83%. Moreover, the inhibition in [8] was 99.3%; in assay [16] it was 149%; in assay [9], 94.5%; in [10], 96.7%; in assay [11], 27%; in assay [12], 28.7%. Also, the inhibition is 1.54% in assay [13], 94.8% in assay [14] and 30.9% in assay [15].

Source of the values: ChEMBL document CHEMBL5442219.
